Assays:
Assay in all cases: relative viability (nuclei count vs DMSO), 5 days (fraction); higher = more cells survive
Neratinib + Luminespib = compound: CCOc1cc2ncc(C#N)c(Nc3ccc(OCc4ccccn4)c(Cl)c3)c2cc1NC(=O)/C=C/CN(C)C [Neratinib] + CCNC(=O)c1noc(-c2cc(C(C)C)c(O)cc2O)c1-c1ccc(CN2CCOCC2)cc1 [Luminespib] (partner 0.01 µM)
Outline: (§1)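 A single step with final 0.05% Triton X-100, 1% formaldehyde and 1 ug/ml Hoechst fixed the cells and stained nuclei 5 days after treatment. Lung cancer cell lines in 1536-well plates had been treated by pin tool the day after seeding with one drug alone or a fixed anchor-drug dose plus five library-drug doses (not always all listed) in √10 steps, and nuclei were counted on 4× images. Relative viability is the ratio of nuclei in treated wells to nuclei in vehicle wells, taken as the median of duplicate plates.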

Neratinib + Foretinib = compound: CCOc1cc2ncc(C#N)c(Nc3ccc(OCc4ccccn4)c(Cl)c3)c2cc1NC(=O)/C=C/CN(C)C [Neratinib] + COc1cc2c(Oc3ccc(NC(=O)C4(C(=O)Nc5ccc(F)cc5)CC4)cc3F)ccnc2cc1OCCCN1CCOCC1 [Foretinib] (partner 0.25 µM)
Outline: as §1

Neratinib + Dasatinib = compound: CCOc1cc2ncc(C#N)c(Nc3ccc(OCc4ccccn4)c(Cl)c3)c2cc1NC(=O)/C=C/CN(C)C [Neratinib] + Cc1nc(Nc2ncc(C(=O)Nc3c(C)cccc3Cl)s2)cc(N2CCN(CCO)CC2)n1 [Dasatinib] (partner 0.075 µM)
Outline: as §1

Neratinib + Decitabine = compound: CCOc1cc2ncc(C#N)c(Nc3ccc(OCc4ccccn4)c(Cl)c3)c2cc1NC(=O)/C=C/CN(C)C [Neratinib] + Nc1ncn([C@H]2C[C@H](O)[C@@H](CO)O2)c(=O)n1 [Decitabine] (partner 2 µM)
Outline: as §1

Cell Line	relative viability (Neratinib + Luminespib; first compound 0.01 µM)	relative viability (Neratinib + Luminespib; first compound 0.03162 µM)	relative viability (Neratinib + Luminespib; first compound 0.1 µM)	relative viability (Neratinib + Luminespib; first compound 0.3162 µM)	relative viability (Neratinib + Luminespib; first compound 1 µM)	relative viability (Neratinib + Foretinib; first compound 0.01 µM)	relative viability (Neratinib + Foretinib; first compound 0.03162 µM)	relative viability (Neratinib + Foretinib; first compound 0.1 µM)	relative viability (Neratinib + Foretinib; first compound 0.3162 µM)	relative viability (Neratinib + Foretinib; first compound 1 µM)	relative viability (Neratinib + Dasatinib; first compound 0.01 µM)	relative viability (Neratinib + Dasatinib; first compound 0.03162 µM)	relative viability (Neratinib + Dasatinib; first compound 0.1 µM)	relative viability (Neratinib + Dasatinib; first compound 0.3162 µM)	relative viability (Neratinib + Dasatinib; first compound 1 µM)	relative viability (Neratinib + Decitabine; first compound 0.01 µM)	relative viability (Neratinib + Decitabine; first compound 0.03162 µM)	relative viability (Neratinib + Decitabine; first compound 0.1 µM)	relative viability (Neratinib + Decitabine; first compound 0.3162 µM)	relative viability (Neratinib + Decitabine; first compound 1 µM)
NCI-H460	0.0344	0.0284	0.0244	0.0268	0.0188	1.12	1.15	0.862	1.04	0.87	0.524	0.527	0.446	0.455	0.317	0.559	0.527	0.522	0.459	0.449
NCI-H520	0.244	0.207	0.231	0.214	0.228	0.96		0.61		0.394	0.212	0.199	0.228	0.171	0.147	0.604	0.547			0.46
NCI-H596	1.04	1.04	1.02	1.02	0.758	0.89	0.986		0.798	0.622		0.659	0.749	0.5	0.436	1.88	1.1	1	0.986	0.863
NCI-H647	0.308	0.128	0.0778	0.153	0.118	1.36	1.34		1.11	0.601	0.171	0.198	0.207	0.129	0.0912	0.438	0.453	0.364	0.358	0.371
NCI-H650	0.814	0.888	0.621	0.722	0.392	1.1	1.03	0.952	0.873	0.884	0.489	0.493	0.477	0.416	0.463	0.321	0.347	0.328	0.326	0.345
NCI-H661	0.966	0.905	0.593	0.587	0.372	1.05	1.06	0.836	0.489	0.364	0.924	0.741	0.5	0.317	0.338		0.513	0.38	0.331	0.337
NCI-H727	0.382	0.337	0.328	0.312	0.352	0.978	0.709	0.793	0.842	0.558	0.36	0.359	0.335	0.333	0.225	0.897	0.846		0.796	0.717
NCI-H838	0.252	0.269	0.258	0.22	0.21	1.12	1.08	0.885		0.656	0.272	0.255	0.278	0.287	0.267	0.459	0.514	0.456	0.463	0.464
NCI-H1355	0.709	0.821	0.725	0.6	0.465			0.874	0.842	0.366	0.754	0.745	0.629	0.584	0.39	0.343	0.326	0.337	0.372	0.341
NCI-H1395	0.59		0.903	0.814	0.418	0.919	1.03		1.02	0.668	0.406	0.388	0.458	0.413	0.318	0.681	0.807	0.749	0.769	0.559
NCI-H1437	1.21	1.08	1	1.11	1.09	1.32	1.26	1.18	1.19	1.28	0.443	0.396	0.475	0.278	0.3	0.539	0.521	0.582	0.58	0.661
NCI-H1650	0.201	0.186	0.204	0.228	0.203	1.1	1.29	0.744	0.657	0.602	0.309	0.31	0.307	0.304	0.376	0.398	0.474	0.474	0.472	0.613
NCI-H1651	0.723	1.32	0.654	0.896	0.546	0.789	0.867	0.715	0.593	0.464	0.424	0.505	0.371	0.452	0.32	0.63	0.663	0.391	0.585	0.543
NCI-H1666		0.951		0.752	0.846	0.973	0.912	0.754	0.646	0.721	0.842	0.887	0.701	0.581	0.586			0.747	0.612	0.604
NCI-H1734	0.202	0.206	0.169	0.204	0.153	0.953	0.887	0.683	0.775	0.469	0.475	0.466	0.424	0.38	0.345	0.539	0.579		0.54	0.481
NCI-H1755	0.544	0.488	0.444	0.419	0.488	0.876	0.988		0.972	0.745	0.478	0.466	0.379	0.436	0.319	0.728	0.715	0.718	0.805	0.858
NCI-H1793	0.153	0.182	0.153	0.164	0.157	0.723		0.408	0.338	0.32	0.43	0.457	0.321	0.34	0.264	0.521	0.455		0.383	0.266
